Experiment [1] concerns the target T1, catalytic domain (JH1, amino acids 826-1132) of human JAK2 (Homo sapiens, UniProt O60674).
T1 construct: catalytic domain (JH1, amino acids 826-1132) of human JAK2; purchased Carna Biosciences 08-445-20N; host or cells: baculovirus expression system
The experiment in a line: JAK2 LanthaScreen JH1 Binding Assay. To be noted: 2 hours at 25° C. Summed up: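 FLAG-tagged biotinylated JAK2 JH1 (1.5 nM) incubated with compounds, 50 nM fluorescent tracer and 0.5 nM streptavidin-Tb in Tris pH 7.5 buffer with MgCl2, BSA, DTT, 2 h at 25 °C.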
(In TR-FRET formats the signal depends on donor and acceptor labels being close together.)

In experiment [2] the target is T2, pseudo-kinase domain (JH2, amino-acids 536-812) of human Wild Type JAK2 (Homo sapiens, UniProt O60674, F794H/W659A/W777A).
T2 construct: pseudo-kinase domain (JH2, amino-acids 536-812 with 3 surface mutations W659A, W777A, F794H); purchased BPS Bioscience 79463; host or cells: baculovirus expression system
T2 sequence (O60674 536-812 W659A/W777A/F794H): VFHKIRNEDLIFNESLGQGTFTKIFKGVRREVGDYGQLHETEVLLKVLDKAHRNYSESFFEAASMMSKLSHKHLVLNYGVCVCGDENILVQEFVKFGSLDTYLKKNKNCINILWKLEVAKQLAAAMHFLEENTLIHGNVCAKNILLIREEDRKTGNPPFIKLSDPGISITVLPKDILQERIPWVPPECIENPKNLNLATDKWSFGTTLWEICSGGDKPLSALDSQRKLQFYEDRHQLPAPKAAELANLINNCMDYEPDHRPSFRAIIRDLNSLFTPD
The experiment in a line: JAK2 LanthaScreen JH2-WT Binding Assay. As to conditions: 1 hour at 25° C. Summed up: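 TR-FRET tracer displacement: 0.145 nM biotinylated JH2 protein, 50 nM fluorescent tracer, 0.25 nM streptavidin-Tb, compound dilution series; 50 mM Tris pH 7.5, 10 mM MgCl2, 5 mM DTT; 1 h, 25° C. Non-specific binding with 2 mM ATP. IC50 by 4-parameter fit.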

The target in experiment [3] is T3, pseudo-kinase domain (JH2, amino-acids 536-812) of human V617F mutant JAK2 (Homo sapiens, UniProt O60674, F794H/V617F/W659A/W777A).
T3 construct: pseudo-kinase domain (JH2, amino-acids 536-812 with 3 surface mutations W659A, W777A, F794H); purchased BPS Bioscience 79498; host or cells: baculovirus expression system
T3 sequence (O60674 536-812 V617F/W659A/W777A/F794H): as the sequence (O60674 536-812 W659A/W777A/F794H) above, with V82F counted along it
The experiment is described as follows: JAK2 LanthaScreen JH2-V617F Binding Assay. As to conditions: 1 hour at 25° C. The method in brief:
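IC50 values came from four-parameter dose-response fits of LanthaScreen signal, read after compounds sat 1 hour at 25° C with 0.26 nM baculovirus-expressed biotinylated protein, 50 nM fluorescent tracer and 0.25 nM streptavidin-Tb cryptate. Non-specific binding was set with 2 mM ATP.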

For experiment [4], the target named is T4, catalytic domain (JH1, amino acids 808-1132) of human JAK2 (Homo sapiens, UniProt O60674).
T4 construct: catalytic domain (JH1, amino acids 808-1132) of human JAK2; His (N); purchased BPS Bioscience 40450; host or cells: baculovirus expression system
T4 sequence (O60674 808-1132): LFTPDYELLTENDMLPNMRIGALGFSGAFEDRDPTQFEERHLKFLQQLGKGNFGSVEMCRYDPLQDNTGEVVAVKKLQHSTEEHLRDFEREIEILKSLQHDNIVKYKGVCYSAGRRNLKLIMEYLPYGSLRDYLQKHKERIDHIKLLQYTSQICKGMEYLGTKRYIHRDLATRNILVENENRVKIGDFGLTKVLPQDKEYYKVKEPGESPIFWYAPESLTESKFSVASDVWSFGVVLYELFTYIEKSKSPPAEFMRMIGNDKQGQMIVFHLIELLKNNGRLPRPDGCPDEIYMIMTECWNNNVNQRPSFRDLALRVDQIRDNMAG
The experiment is described as follows: JAK2 HTRF Enzyme Activity Assay. It counts as biochemical. As to conditions: ATP 30 μM, read-out: ENZ 30UMATP. The method in brief: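 His-tagged JAK2 JH1 from baculovirus, 0.015 nM, incubated with compound, ATP at 30 μM or 1 mM and 500 nM biotinylated peptide, pH 7.5, 60 min at 25° C. HTRF read-out via Eu-anti-phosphotyrosine and streptavidin-APC after EDTA stop; IC50 from four-parameter dose-response fit.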

pIC50: −log10 of the molar value. Counter-ions that a name gives are not always drawn. A value given as a limit tells only on which side of the number the result lay.

T1 sequence (O60674 826-1132): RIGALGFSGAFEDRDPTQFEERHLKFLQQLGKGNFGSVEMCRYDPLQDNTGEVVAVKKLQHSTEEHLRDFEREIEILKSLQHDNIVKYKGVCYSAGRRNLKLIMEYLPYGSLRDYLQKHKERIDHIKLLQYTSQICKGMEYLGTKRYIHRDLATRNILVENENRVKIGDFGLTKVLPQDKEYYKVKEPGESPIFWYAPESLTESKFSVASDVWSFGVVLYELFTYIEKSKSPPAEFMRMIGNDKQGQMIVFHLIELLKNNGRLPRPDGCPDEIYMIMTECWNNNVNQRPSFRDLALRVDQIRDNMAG

Regarding `CN1C(=O)C2(CCN(C3(CC#N)CCC3)CC2)c2c1cnc1[nH]c(-c3cnn(CCN4CCOCC4)c3)c(-c3ccc4c(cnn4C)c3)c21` [Example 38, 2-(1-(6-Methyl-1-(1-methyl-1H-indazol-5-yl)-2-(1-(2-morpholinoethyl)-1H-pyrazol-4-yl)-7-oxo-6,7-dihydro-3H-spiro[dipyrrolo[2,3-b:3′,2′-d]pyridine-8,4′-piperidin]-1′-yl)cyclobutyl)acetonitrile, trifluoroacetate salt], the pIC50 in experiment [1] was 6.30 to 7.00; in experiment [2], no less than 7.00; in experiment [3], no less than 7.00; in experiment [4], no less than 7.00.

For `CN1C(=O)C2(CCN(C3(CC#N)CCC3)CC2)c2c1cnc1[nH]c(-c3cnn(CC4CC4)c3)c(-c3ccc4c(cnn4C)c3)c21` [Example 39, 2-(1-(2-(1-(Cyclopropylmethyl)-1H-pyrazol-4-yl)-6-methyl-1-(1-methyl-1H-indazol-5-yl)-7-oxo-6,7-dihydro-3H-spiro[dipyrrolo[2,3-b:3′,2′-d]pyridine-8,4′-piperidin]-1′-yl)cyclobutyl)acetonitrile, trifluoroacetate salt], the pIC50 is 6.30 to 7.00 in experiment [1], no less than 7.00 in experiment [2], no less than 7.00 in experiment [3] and 6.30 to 7.00 in experiment [4].

Regarding `CN1C(=O)C2(CCN(C3(CC#N)CCC3)CC2)c2c1cnc1[nH]c(-c3cn(C)nc3C3CC3)c(-c3ccc4c(cnn4C)c3)c21` [Example 40, 2-(1-(2-(3-Cyclopropyl-1-methyl-1H-pyrazol-4-yl)-6-methyl-1-(1-methyl-1H-indazol-5-yl)-7-oxo-6,7-dihydro-3H-spiro[dipyrrolo[2,3-b:3′,2′-d]pyridine-8,4′-piperidin]-1′-yl)cyclobutyl)acetonitrile, trifluoroacetate salt], the pIC50 in experiment [1] is less than 5.60; in experiment [2], no less than 7.00; in experiment [3] it was no less than 7.00; in experiment [4], less than 5.60.

As to `CC(=O)N1CCC(n2cc(-c3[nH]c4ncc5c(c4c3-c3ccc4c(cnn4C)c3)C3(CCN(C4(CC#N)CCC4)CC3)C(=O)N5C)cn2)CC1` [Example 41, 2-(1-(2-(1-(1-Acetylpiperidin-4-yl)-1H-pyrazol-4-yl)-6-methyl-1-(1-methyl-1H-indazol-5-yl)-7-oxo-6,7-dihydro-3H-spiro[dipyrrolo[2,3-b:3′,2′-d]pyridine-8-4′-piperidin]-1′-yl)cyclobutyl)acetonitrile, trifluoroacetate salt], the pIC50 is 6.30 to 7.00 in experiment [1], no less than 7.00 in experiment [2], no less than 7.00 in experiment [3] and no less than 7.00 in experiment [4].

Take `CN1C(=O)C2(CCN(C3(CC#N)CCC3)CC2)c2c1cnc1[nH]c(-c3ccn(C)c3)c(-c3ccc4c(cnn4C)c3)c21` [Example 42, 2-(1-(6-Methyl-1-(1-methyl-1H-indazol-5-yl)-2-(1-methyl-IH-pyrrol-3-yl)-7-oxo-6,7-dihydro-3H-spiro[dipyrrolo[2,3b:3′,2′-d]pyridine-8,4′-piperidin]-1′-yl)cyclobutyl)acetonitrile, trifluoroacetate salt]: the pIC50 in experiment [1] was 5.90 to 6.30; in experiment [2], no less than 7.00; in experiment [3] it was no less than 7.00; in experiment [4] it was 6.30 to 7.00.

With `CN1C(=O)C2(CCN(C3(CC#N)CCC3)CC2)c2c1cnc1[nH]c(-c3cnn4c3CCCC4)c(-c3ccc4c(cnn4C)c3)c21` [Example 43, 2-(1-(6-Methyl-1-(1-methyl-1H-indazol-5-yl)-7-oxo-2-(4,5,6,7-tetrahydropyrazolo[1,5-a]pyridin-3-yl)-6,7-dihydro-3H-spiro[dipyrrolo[2,3-b:3′,2′-d]pyridine-8,4′-piperidin]-1′-yl)cyclobutyl)acetonitrile], the pIC50 in experiment [1] is less than 5.60; in experiment [2], no less than 7.00; in experiment [3], no less than 7.00; in experiment [4], less than 5.60.

The values are drawn from patent US11958861B2, “Spirocyclic lactams as JAK2 V617F inhibitors” (Incyte Corporation, priority 2021, dated 2024).
